Reference: ChEMBL document CHEMBL3232814, “Synthesis and anticancer structure activity relationship investigation of cationic anthraquinone analogs” (2014)

Experiments:
Format in all cases: functional
[1] = Growth inhibition of human SF295 cells; settings: SF-295
[2] = Growth inhibition of human NCI60 cells assessed as cell growth; parameters: concentration or dose not given beside the values
HOP-62 = experiment: Growth inhibition of human HOP62 cells
[3] = Growth inhibition of human UACC257 cells
KM12 = experiment: Growth inhibition of human KM12 cells
COLO 205 = experiment: Growth inhibition of human COLO205 cells
Malme-3M = experiment: Growth inhibition of human MALME-3M cells
NCI-H460 = experiment: Growth inhibition of human NCI-H460 cells
HT-29 = experiment: Growth inhibition of human HT-29 cells
NCI-H226 = experiment: Growth inhibition of human NCI-H226 cells
SK-MEL-5 = experiment: Growth inhibition of human SK-MEL-5 cells
SK-MEL-2 = experiment: Growth inhibition of human SK-MEL-2 cells
SF-268 = experiment: Growth inhibition of human SF268 cells
[4] = Growth inhibition of human LOXIMVI cells; settings: LOX IMVI
Staphylococcus aureus = experiment: Antimicrobial activity against Staphylococcus aureus ATCC 25923 after 12 to 18 hrs by 2-fold serial dilution method
SW-620 = experiment: Growth inhibition of human SW620 cells
U-251 = experiment: Growth inhibition of human U251 cells
A549 = experiment: Growth inhibition of human A549 cells
[5] = Growth inhibition of human HOP92 cells
SNB-19 = experiment: Growth inhibition of human SNB19 cells
MDA-MB-435 = experiment: Growth inhibition of human MDA-MB-435 cells
SK-MEL-28 = experiment: Growth inhibition of human SK-MEL-28 cells
HCT-116 = experiment: Growth inhibition of human HCT116 cells
M14 = experiment: Growth inhibition of human M14 cells
NCI-H522 = experiment: Growth inhibition of human NCI-H522 cells
[6] = Growth inhibition of human UACC62 cells
NCI-H23 = experiment: Growth inhibition of human NCI-H23 cells
[7] = Growth inhibition of human HCT15 cells; settings: HCT-15
NCI-H322M = experiment: Growth inhibition of human NCI-H322M cells
[8] = Growth inhibition of human SF539 cells
SNB-75 = experiment: Growth inhibition of human SNB75 cells
[9] = Growth inhibition of human HCC2998 cells
[10] = read-out: LC50 (the source's name)

COc1cc(OC)cc(-n2n[n+](C)c3c2C(=O)c2ccccc2C3=O)c1.O=S(=O)([O-])C(F)(F)F
GI50 [1]: 180 nM
LC50 (concentration killing 50% of cells) [1]: 610 nM
Activity [2]: 23.23%
GI50 (HOP-62): 1510 nM
CC50 (HOP-62; [10]): 6080 nM
GI50 ([3]; UACC-257): 1200 nM
CC50 ([3]; UACC-257, read-out: LC50 (the source's name)): 5300 nM
GI50 (KM12): 3110 nM
CC50 (KM12; [10]): 42900 nM
GI50 (COLO 205): 400 nM
CC50 (COLO 205; [10]): 5350 nM
GI50 (Malme-3M): 410 nM
CC50 (Malme-3M; [10]): 3720 nM
GI50 (NCI-H460): 560 nM
CC50 (NCI-H460; [10]): 8010 nM
GI50 (HT-29): 1100 nM
LC50 (HT-29): > 100000 nM
GI50 (NCI-H226): 1740 nM
CC50 (NCI-H226; [10]): 7760 nM
GI50 (SK-MEL-5): 180 nM
LC50 (lethal concentration 50) (SK-MEL-5): 660 nM
GI50 (SK-MEL-2): 2080 nM
CC50 (SK-MEL-2; [10]): 12400 nM
GI50 (SF-268): 3680 nM
CC50 (SF-268; [10]): > 100000 nM
GI50 [4]: 1710 nM
CC50 [4, 10]: 7090 nM
MIC (Staphylococcus aureus): 16 µg/mL
GI50 (SW-620): 3000 nM
CC50 (SW-620; [10]): > 100000 nM
GI50 (U-251): 1530 nM
LC50 (U-251): 5540 nM
GI50 (A549): 780 nM
CC50 (A549; [10]): 8810 nM
GI50 ([5]; HOP-92): 7070 nM
CC50 ([5]; HOP-92, read-out: LC50 (the source's name)): > 100000 nM
GI50 (SNB-19): 1250 nM
LC50 (SNB-19): 5100 nM
GI50 (MDA-MB-435): 310 nM
GI50 (SK-MEL-28): 3200 nM
CC50 (SK-MEL-28; [10]): 43300 nM
GI50 (HCT-116): 2660 nM
CC50 (HCT-116; [10]): 48600 nM
GI50 (M14): 500 nM
CC50 (M14; [10]): 4370 nM
GI50 (NCI-H522): 2540 nM
CC50 (NCI-H522; [10]): 29200 nM
GI50 ([6]; UACC-62): 1410 nM
CC50 ([6]; UACC-62, read-out: LC50 (the source's name)): 5890 nM
GI50 (NCI-H23): 1260 nM
CC50 (NCI-H23; [10]): > 100000 nM
GI50 [7]: 1610 nM
GI50 (NCI-H322M): 360 nM
CC50 (NCI-H322M; [10]): 3680 nM
GI50 ([8]; SF-539): 1640 nM
CC50 ([8]; SF-539, read-out: LC50 (the source's name)): 5600 nM
GI50 (SNB-75): 1630 nM
CC50 (SNB-75; [10]): 5470 nM
GI50 ([9]; HCC 2998): 1500 nM
CC50 ([9]; HCC 2998, read-out: LC50 (the source's name)): 8990 nM
